Source: paper PMC3689883 (Journal of medicinal chemistry, 2013)
pKd, pKi: −log10 of the molar value.

Experiments:
[1] = biological target: KA receptors; conditions: cited from earlier work; for Ki [3H]KA: rat cortical synaptosomes, ref Clausen et al 14
[2] = biological target: AMPA receptors; conditions: read-out: Ki [3H]AMPA; rat cortical synaptosomes; ref Clausen et al 14; cited from earlier work
[3] = biological target: NMDA receptors; conditions: cited from earlier work
[4] = tested on: AMPA receptors; experiment: [3H]AMPA radioligand binding, rat cortical synaptosomes; conditions: at a concentration of 100 μM
[5] = tested on: KA receptors; experiment: [3H]KA radioligand binding, rat cortical synaptosomes; conditions: at a concentration of 100 μM
[6] = biological target: GluN1/GluN2D (Rattus norvegicus, UniProt Q62645); experiment: Two-electrode voltage-clamp, Xenopus oocytes expressing GluN1/GluN2D; assay type: cell-based; conditions: EC50 GluN2A vs GluN2D
Chain of GluN1/GluN2D (Q62645 28-1323, other chains not shown): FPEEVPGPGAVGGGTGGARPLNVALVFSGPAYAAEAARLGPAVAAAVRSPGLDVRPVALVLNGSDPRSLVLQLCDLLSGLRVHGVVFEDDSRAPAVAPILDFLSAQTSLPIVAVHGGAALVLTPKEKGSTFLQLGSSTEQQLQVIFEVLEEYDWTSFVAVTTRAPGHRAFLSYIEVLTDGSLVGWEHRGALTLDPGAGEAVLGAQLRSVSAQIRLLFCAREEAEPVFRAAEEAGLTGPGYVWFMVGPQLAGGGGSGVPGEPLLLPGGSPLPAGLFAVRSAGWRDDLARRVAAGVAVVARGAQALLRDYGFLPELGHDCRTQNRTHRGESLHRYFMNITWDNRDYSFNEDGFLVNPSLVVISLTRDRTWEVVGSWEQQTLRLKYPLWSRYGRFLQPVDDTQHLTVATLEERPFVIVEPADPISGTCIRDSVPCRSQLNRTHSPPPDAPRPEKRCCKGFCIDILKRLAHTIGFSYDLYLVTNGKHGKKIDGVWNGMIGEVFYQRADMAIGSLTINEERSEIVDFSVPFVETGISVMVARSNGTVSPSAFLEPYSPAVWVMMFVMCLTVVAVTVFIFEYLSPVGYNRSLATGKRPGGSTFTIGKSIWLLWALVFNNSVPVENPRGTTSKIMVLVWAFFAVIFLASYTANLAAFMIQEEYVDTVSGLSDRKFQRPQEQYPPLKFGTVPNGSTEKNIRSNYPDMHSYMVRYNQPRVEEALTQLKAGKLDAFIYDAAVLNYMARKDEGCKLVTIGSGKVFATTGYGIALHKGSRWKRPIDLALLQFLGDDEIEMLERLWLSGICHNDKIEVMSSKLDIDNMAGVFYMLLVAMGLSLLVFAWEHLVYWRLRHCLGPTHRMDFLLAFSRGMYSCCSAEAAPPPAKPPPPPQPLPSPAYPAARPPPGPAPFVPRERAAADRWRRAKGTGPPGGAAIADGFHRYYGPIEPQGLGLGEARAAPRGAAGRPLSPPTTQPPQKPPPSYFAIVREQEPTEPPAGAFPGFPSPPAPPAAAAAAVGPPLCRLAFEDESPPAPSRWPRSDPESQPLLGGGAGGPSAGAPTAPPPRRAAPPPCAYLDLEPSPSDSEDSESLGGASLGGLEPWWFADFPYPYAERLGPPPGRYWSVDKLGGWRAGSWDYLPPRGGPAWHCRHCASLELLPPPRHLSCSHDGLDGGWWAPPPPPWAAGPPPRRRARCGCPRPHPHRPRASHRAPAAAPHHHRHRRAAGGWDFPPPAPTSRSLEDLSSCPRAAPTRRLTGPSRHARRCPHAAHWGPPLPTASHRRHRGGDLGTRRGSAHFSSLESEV

In the case of `NC(C(=O)O)c1ccnn1O` (racemic) [Compound 3a, (RS)-2-(N-hydroxypyrazol-5-yl)glycine], the “Ki [3H]KA” value [1] is listed as >100 µM, the pKi [2] is listed as < 4.00 and the pKi ([3]; read-out: Ki [3H]CGP39653, rat cortical synaptosomes, ref Clausen et al 14) is listed as 5.00.

In the case of `CCCC[C@]1(C(=O)O)C[C@H]1[C@H](N)C(=O)O.Cl` [Compound 4e, (1S,2R)-2-((S)-amino(carboxy)methyl)-1-butylcyclopropanecarboxylic acid hydrochloride], the “binding to AMPA receptors” value [4] was “not binding” and the “binding to KA receptors” value [5] was “not binding”.

For `CCCc1cnn(O)c1[C@@H](N)C(=O)O` [Compound 3b], the “Ki [3H]KA” value [1] is listed as >100 µM and the pKi [2] is listed as < 4.00.

For `CCCC(=CC(N)C(=O)O)CP(=O)(O)O` (stereo not shown) [[^3H]CGP 39653], the pKd ([3]; read-out: Kd of radioligand, radioligand used at 2 nM) is given as 8.22.

In the case of `C=C(C)[C@H]1CN[C@H](C(=O)O)[C@H]1CC(=O)O` [[^3H]KA, kainic acid], the pKd ([1]; read-out: Kd of radioligand, radioligand used at 5 nM) is listed as 8.25.

In the case of `CC[C@]1(C(=O)O)C[C@H]1[C@H](N)C(=O)O.Cl` [Compound 4c, (1S,2R)-2-((S)-amino(carboxy)methyl)-1-ethylcyclopropanecarboxylic acid hydrochloride], the “fold more potent at GluN2D compared to GluN2A” value [6] was 15 fold.
